Source: US20240041042A1, “1-(PYRIDYL)-5-AZINYLPYRAZOLE DERIVATIVES, AND THEIR USE FOR CONTROL OF UNDESIRED PLANT GROWTH” (Bayer Aktiengesellschaft, priority 2020, published 2024)
Like-named read-outs stand apart in the source and are kept apart here.

Columns and labels:
Assay type in all cases: in vivo
[1] = test system: Polygonum convolvulus (POLCO); assay: Pre-emergence herbicidal action against POLCO; conditions: dosage 320 g/ha
Outline: (§1)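 Pre-emergence soil-surface spray of compound, formulated as wettable powder or emulsion concentrate, in aqueous suspension or emulsion with 0.5% additive (600 l/ha; rate 320 g/ha or less). Activity rated visually after roughly 3 weeks in the greenhouse as a percentage of untreated controls, 0% meaning no difference.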

Zea mays (ZEAMX) [2] = conditions: pre-emergence, crop plant compatibility, in comparison to untreated controls
Outline: (§2)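 Scoring: visual, % of untreated control, about 3 weeks after a pre-emergence application to the soil surface. Application used WP or EC formulations diluted in water with 0.5% additive at 600 l/ha; dosage levels are marked by suffixes a, b and c.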

Oryza sativa (ORYSA) [3] = conditions: pre-emergence, crop plant compatibility, in comparison to untreated controls
Outline: as §2

[4] = test system: Matricaria inodora (MATIN); assay: Pre-emergence herbicidal action against MATIN
Outline: as §1

[5] = test system: Alopecurus myosuroides (ALOMY); assay: Post-emergence herbicidal action against ALOMY; conditions: visual rating about 3 weeks after treatment vs untreated controls (100% = plants have died, 0% = like control plants)
Outline: (§3)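 Values are percent visual activity (0% like control, 100% plants dead) after about 3 weeks in the greenhouse. Treatment: post-emergence spray at one-leaf stage, 600 l/ha spray volume, 0.5% additive, doses 320 g/ha or lower.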

Avena fatua (AVEFA) [6] = assay: Post-emergence herbicidal action against AVEFA; conditions: visual rating about 3 weeks after treatment
Outline: as §3

[7] = test system: Amaranthus retroflexus (AMARE); assay: Pre-emergence herbicidal action against AMARE; conditions: visual scoring after about 3 weeks vs untreated controls
Outline: as §1

[8] = test system: Alopecurus myosuroides (ALOMY); assay: Pre-emergence herbicidal action against ALOMY; conditions: scored visually after about 3 weeks, 100% = plants have died
Outline: as §1

Lolium rigidum (LOLRI) [9] = assay: Post-emergence herbicidal action against LOLRI
Outline: as §3

Viola tricolor (VIOTR) [10] = assay: Post-emergence herbicidal action against VIOTR
Outline: as §3

[11] = test system: Echinochloa crus-galli (ECHCG); assay: Post-emergence herbicidal action against ECHCG
Outline: as §3

[12] = test system: Polygonum convolvulus (POLCO); assay: Post-emergence herbicidal action against POLCO
Outline: as §3

Viola tricolor (VIOTR) [13] = assay: Pre-emergence herbicidal action against VIOTR
Outline: as §1

[14] = test system: Verconica persica (VERPE); assay: Post-emergence herbicidal action against VERPE
Outline: as §3

Oryza sativa (ORYSA) [15] = conditions: crop plant compatibility, 80 g/ha, effect in comparison to untreated controls
Outline: (§4)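 One-leaf-stage crops (2–3 wk post-sowing, sandy loam, greenhouse) sprayed on green parts; 0.5% additive, 600 l/ha water. Rated by eye ~3 wk later, % vs untreated; suffixes a/b/c mark different dosages.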

[16] = test system: Matricaria inodora (MATIN); assay: Post-emergence herbicidal action against MATIN; conditions: dosage 320 g/ha
Outline: as §3

[17] = test system: Abutilon theophrasti (ABUTH); assay: Post-emergence herbicidal action against ABUTH; conditions: visual rating about 3 weeks after treatment vs untreated controls (100% = plants have died, 0% = like control plants)
Outline: as §3

[18] = test system: Verconica persica (VERPE); assay: Pre-emergence herbicidal action against VERPE
Outline: as §1

Setaria viridis (SETVI) [19] = assay: Pre-emergence herbicidal action against SETVI; conditions: dosage 320 g/ha
Outline: as §1

Avena fatua (AVEFA) [20] = assay: Pre-emergence herbicidal action against AVEFA; conditions: 320 g/ha, visual scoring after about 3 weeks vs untreated controls
Outline: as §1

[21] = test system: Amaranthus retroflexus (AMARE); assay: Post-emergence herbicidal action against AMARE
Outline: as §3

Setaria viridis (SETVI) [22] = assay: Post-emergence herbicidal action against SETVI
Outline: as §3

[23] = test system: Pharbitis purpurea (PHBPU); assay: Post-emergence herbicidal action against PHBPU
Outline: as §3

Lolium rigidum (LOLRI) [24] = assay: Pre-emergence herbicidal action against LOLRI; conditions: dosage 320 g/ha
Outline: as §1

[25] = test system: Pharbitis purpurea (PHBPU); assay: Pre-emergence herbicidal action against PHBPU; conditions: dosage 320 g/ha
Outline: as §1

Zea mays (ZEAMX) [26] = conditions: crop plant compatibility, 80 g/ha, effect vs untreated controls
Outline: as §4

[27] = test system: Echinochloa crus-galli (ECHCG); assay: Pre-emergence herbicidal action against ECHCG; conditions: dosage 320 g/ha
Outline: as §1

[28] = 80 g/ha, visual rating about 3 weeks after treatment vs untreated controls (100% = plants have died, 0% = like control plants)
[29] = 320 g/ha, visual rating about 3 weeks after treatment

CSCCOC(=O)COc1nn(-c2ccccn2)c(-c2ccc(F)nc2)c1Br [Example I-95]
Pre-emergence action against POLCO in % [1]: 90%
Pre-emergence action against ZEAMX in % (Zea mays (ZEAMX) [2]; 80 g/ha): 0%
Pre-emergence action against ZEAMX in % (Zea mays (ZEAMX) [2]; 320 g/ha): 0%
Pre-emergence action against ORYSA in % (Oryza sativa (ORYSA) [3]; 80 g/ha): 0%
Pre-emergence action against ORYSA in % (Oryza sativa (ORYSA) [3]; 320 g/ha): 0%
Pre-emergence action against MATIN in % ([4]; dosage 320 g/ha): 80%
Post-emergence action against ALOMY in % ([5]; 320 g/ha): 100%
Post-emergence action against AVEFA in % (Avena fatua (AVEFA) [6]; 80 g/ha): 80%
Post-emergence action against AVEFA in % (Avena fatua (AVEFA) [6]; 320 g/ha): 80%
Pre-emergence action against AMARE in % ([7]; 80 g/ha): 90%
Pre-emergence action against AMARE in % ([7]; 320 g/ha): 100%
Pre-emergence action against ALOMY ([8]; 320 g/ha): 80%
Post-emergence action against LOLRI in % (Lolium rigidum (LOLRI) [9]; dosage 320 g/ha): 80%
Post-emergence action against VIOTR in % (Viola tricolor (VIOTR) [10]; 320 g/ha): 80%
Post-emergence action against ECHCG in % ([11]; dosage 320 g/ha): 90%
Post-emergence action against POLCO in % ([12]; dosage 80 g/ha): 80%
Post-emergence action against POLCO in % ([12]; dosage 320 g/ha): 80%
Pre-emergence action against VIOTR in % (Viola tricolor (VIOTR) [13]; 320 g/ha, Viola tricolor): 100%
Pre-emergence action against VIOTR in % (Viola tricolor (VIOTR) [13]; dosage 80 g/ha): 100%
Post-emergence action against VERPE in % ([14]; 320 g/ha, VERPE): 80%
Post-emergence action against VERPE in % ([14]; dosage 80 g/ha): 80%
Post-emergence action against ORYSA in % (Oryza sativa (ORYSA) [15]): 0%
Post-emergence action against MATIN in % [16]: 80%
Post-emergence action against ABUTH in % ([17]; 80 g/ha): 80%
Post-emergence action against ABUTH in % ([17]; 320 g/ha): 80%
Pre-emergence action against VERPE in % ([18]; dosage 320 g/ha): 100%
Pre-emergence action against SETVI in % (Setaria viridis (SETVI) [19]): 100%
Pre-emergence action against AVEFA in % (Avena fatua (AVEFA) [20]): 80%
Post-emergence action against AMARE in % [21, 28]: 80%
Post-emergence action against AMARE in % [21, 29]: 90%
Post-emergence action against SETVI in % (Setaria viridis (SETVI) [22]; dosage 320 g/ha): 90%

COC(=O)COc1nn(-c2nc(F)ccc2F)c(-c2ccc(F)nc2)c1Br [Example I-369]
Pre-emergence action against POLCO in % [1]: 90%
Pre-emergence action against ORYSA in % (Oryza sativa (ORYSA) [3]; 80 g/ha): 20%
Pre-emergence action against MATIN in % ([4]; dosage 80 g/ha): 80%
Pre-emergence action against MATIN in % ([4]; dosage 320 g/ha): 90%
Post-emergence action against ALOMY in % ([5]; 80 g/ha): 80%
Post-emergence action against ALOMY in % ([5]; 320 g/ha): 100%
Post-emergence action against AVEFA in % (Avena fatua (AVEFA) [6]; 320 g/ha): 80%
Pre-emergence action against AMARE in % ([7]; 80 g/ha): 90%
Pre-emergence action against AMARE in % ([7]; 320 g/ha): 90%
Pre-emergence action against ALOMY ([8]; 80 g/ha): 80%
Pre-emergence action against ALOMY ([8]; 320 g/ha): 100%
Post-emergence action against LOLRI in % (Lolium rigidum (LOLRI) [9]; dosage 80 g/ha): 80%
Post-emergence action against LOLRI in % (Lolium rigidum (LOLRI) [9]; dosage 320 g/ha): 90%
Post-emergence action against VIOTR in % (Viola tricolor (VIOTR) [10]; 80 g/ha): 80%
Post-emergence action against VIOTR in % (Viola tricolor (VIOTR) [10]; 320 g/ha): 80%
Post-emergence action against ECHCG in % ([11]; dosage 80 g/ha): 80%
Post-emergence action against ECHCG in % ([11]; dosage 320 g/ha): 80%
Post-emergence action against POLCO in % ([12]; dosage 320 g/ha): 80%
Pre-emergence action against VIOTR in % (Viola tricolor (VIOTR) [13]; 320 g/ha, Viola tricolor): 100%
Pre-emergence action against VIOTR in % (Viola tricolor (VIOTR) [13]; dosage 80 g/ha): 80%
Post-emergence action against PHBPU in % ([23]; dosage 80 g/ha): 80%
Post-emergence action against PHBPU in % ([23]; dosage 320 g/ha): 90%
Pre-emergence action against LOLRI in % (Lolium rigidum (LOLRI) [24]): 90%
Pre-emergence action against PHBPU in % [25]: 90%
Post-emergence action against VERPE in % ([14]; 320 g/ha, VERPE): 80%
Post-emergence action against VERPE in % ([14]; dosage 80 g/ha): 80%
Post-emergence action against ZEAMX in % (Zea mays (ZEAMX) [26]): 10%
Post-emergence action against ORYSA in % (Oryza sativa (ORYSA) [15]): 20%
Post-emergence action against MATIN in % [16]: 80%
Post-emergence action against ABUTH in % ([17]; 320 g/ha): 80%
Pre-emergence action against VERPE in % ([18]; dosage 80 g/ha): 90%
Pre-emergence action against VERPE in % ([18]; dosage 320 g/ha): 90%
Pre-emergence action against SETVI in % (Setaria viridis (SETVI) [19]): 90%
Pre-emergence action against AVEFA in % (Avena fatua (AVEFA) [20]): 80%
Post-emergence action against AMARE in % [21, 29]: 80%
Pre-emergence action against ECHCG in % [27]: 100%

CCOC(=O)CSc1nn(-c2ccccn2)c(-c2cncc(F)c2)c1I [Example I-152]
Pre-emergence action against ZEAMX in % (Zea mays (ZEAMX) [2]; 80 g/ha): 10%
Pre-emergence action against ORYSA in % (Oryza sativa (ORYSA) [3]; 80 g/ha): 20%
Pre-emergence action against MATIN in % ([4]; dosage 320 g/ha): 90%
Post-emergence action against ALOMY in % ([5]; 320 g/ha): 80%
Pre-emergence action against AMARE in % ([7]; 320 g/ha): 100%
Pre-emergence action against ALOMY ([8]; 320 g/ha): 80%
Post-emergence action against ECHCG in % ([11]; dosage 80 g/ha): 80%
Post-emergence action against ECHCG in % ([11]; dosage 320 g/ha): 80%
Post-emergence action against POLCO in % ([12]; dosage 320 g/ha): 80%
Pre-emergence action against VIOTR in % (Viola tricolor (VIOTR) [13]; 320 g/ha, Viola tricolor): 90%
Pre-emergence action against VIOTR in % (Viola tricolor (VIOTR) [13]; dosage 80 g/ha): 80%
Post-emergence action against PHBPU in % ([23]; dosage 80 g/ha): 80%
Post-emergence action against PHBPU in % ([23]; dosage 320 g/ha): 90%
Post-emergence action against VERPE in % ([14]; 320 g/ha, VERPE): 80%
Post-emergence action against ORYSA in % (Oryza sativa (ORYSA) [15]): 0%
Post-emergence action against ABUTH in % ([17]; 320 g/ha): 80%
Pre-emergence action against SETVI in % (Setaria viridis (SETVI) [19]): 90%
Post-emergence action against AMARE in % [21, 28]: 80%
Post-emergence action against AMARE in % [21, 29]: 80%
Pre-emergence action against ECHCG in % [27]: 90%
Post-emergence action against SETVI in % (Setaria viridis (SETVI) [22]; dosage 80 g/ha): 80%
Post-emergence action against SETVI in % (Setaria viridis (SETVI) [22]; dosage 320 g/ha): 80%
